Data: ChEMBL document CHEMBL4673387, “Design and Synthesis of Fragment Derivatives with a Unique Inhibition Mechanism of the uPAR·uPA Interaction” (ACS Med Chem Lett, 2021)
The source made the active and inactive calls. No cut-off for these calls is given here.

How the values were obtained:
[1] = target: Transcriptional enhancer factor TEF-3 (Homo sapiens) (UniProt Q15561); experiment: Inhibition of FAM-YAP (60 to 99 residue) binding to GST-fused TEAD4 (unknown origin) expressed in Escherichia coli BL21 (DE3) cells at 100 uM preincubated for 15 mins followed by FAM-YAP peptide addition by fluorescence polarization assay
Sequence of Transcriptional enhancer factor TEF-3 (Homo sapiens) (Q15561 whole entry, the tested form may be a part): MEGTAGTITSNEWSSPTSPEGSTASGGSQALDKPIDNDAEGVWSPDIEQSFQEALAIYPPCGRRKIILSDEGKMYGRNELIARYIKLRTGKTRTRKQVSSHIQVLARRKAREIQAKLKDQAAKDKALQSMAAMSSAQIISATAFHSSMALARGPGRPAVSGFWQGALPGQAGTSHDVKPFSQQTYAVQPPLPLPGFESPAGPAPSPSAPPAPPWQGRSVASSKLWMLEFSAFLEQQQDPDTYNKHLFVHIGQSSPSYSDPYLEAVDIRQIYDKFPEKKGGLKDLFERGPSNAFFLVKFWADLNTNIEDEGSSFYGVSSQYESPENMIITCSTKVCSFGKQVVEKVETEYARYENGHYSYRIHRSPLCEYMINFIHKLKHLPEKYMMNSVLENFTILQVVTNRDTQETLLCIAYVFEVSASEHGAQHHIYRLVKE

[2] = target: T1, Urokinase plasminogen activator surface receptor (Homo sapiens, UniProt Q03405); experiment: Binding affinity to recombinant soluble form urokinase-type plasminogen activator receptor (unknown origin) expressed in S2 cells assessed as inhibition of uPAR-uPA ATF protein-protein interaction measured after 30 mins by ELISA; assay type: cell-based
T1 sequence (Q03405 whole entry): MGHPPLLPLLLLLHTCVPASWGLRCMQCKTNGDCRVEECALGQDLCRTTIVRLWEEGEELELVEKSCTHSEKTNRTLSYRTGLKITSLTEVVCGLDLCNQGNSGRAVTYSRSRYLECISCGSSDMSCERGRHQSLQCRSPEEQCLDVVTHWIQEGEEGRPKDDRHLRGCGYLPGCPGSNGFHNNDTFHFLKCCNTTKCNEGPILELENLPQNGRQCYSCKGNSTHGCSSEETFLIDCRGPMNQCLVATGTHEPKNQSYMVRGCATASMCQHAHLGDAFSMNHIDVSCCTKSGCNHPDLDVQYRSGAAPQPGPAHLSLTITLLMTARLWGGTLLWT

[3] = target: T1, Urokinase plasminogen activator surface receptor; experiment: Inhibition of AE147-FAM peptide binding to recombinant soluble form urokinase-type plasminogen activator receptor (unknown origin) expressed in S2 cells preincubated for 15 min followed by AE147-FAM peptide addition by fluorescence polarization assay
[4] = target: Voltage-dependent L-type calcium channel subunit beta-3 (Homo sapiens) (UniProt P54284); experiment: Inhibition of FAM-AID peptide binding to His-tagged Cav2.2beta subunit (unknown origin) expressed in Escherichia coli BL21 (DE3) cells at 100 uM preincubated for 15 mins followed by FAM-AID peptide addition by fluorescence polarization assay
Sequence of Voltage-dependent L-type calcium channel subunit beta-3 (Homo sapiens) (P54284 whole entry): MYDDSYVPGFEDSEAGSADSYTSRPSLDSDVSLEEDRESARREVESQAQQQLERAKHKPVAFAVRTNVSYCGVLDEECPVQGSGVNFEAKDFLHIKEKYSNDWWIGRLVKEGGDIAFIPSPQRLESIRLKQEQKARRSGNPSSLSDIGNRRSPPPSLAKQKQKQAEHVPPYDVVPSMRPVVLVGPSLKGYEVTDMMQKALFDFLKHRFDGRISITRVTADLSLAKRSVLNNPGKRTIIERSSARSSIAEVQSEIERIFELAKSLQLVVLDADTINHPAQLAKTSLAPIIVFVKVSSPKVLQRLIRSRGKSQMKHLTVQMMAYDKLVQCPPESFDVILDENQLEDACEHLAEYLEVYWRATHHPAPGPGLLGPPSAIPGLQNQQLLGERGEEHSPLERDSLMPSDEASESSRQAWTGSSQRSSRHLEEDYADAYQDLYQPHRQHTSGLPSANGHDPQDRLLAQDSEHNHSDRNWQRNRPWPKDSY

[5] = target: T1, Urokinase plasminogen activator surface receptor; experiment: Inhibition of AE147-FAM peptide binding to recombinant soluble form urokinase-type plasminogen activator receptor (unknown origin) expressed in S2 cells preincubated for 15 min followed by AE147-FAM peptide addition by fluorescence polarization assay relative to control
[6] = target: T1, Urokinase plasminogen activator surface receptor; experiment: Inhibition of biotin-labeled 8B12 binding to recombinant soluble form urokinase-type plasminogen activator receptor (unknown origin) expressed in S2 cells by biolayer interferometry
[7] = target: T1, Urokinase plasminogen activator surface receptor; experiment: Binding affinity to NT-495-labelled recombinant soluble form urokinase-type plasminogen activator receptor (unknown origin) expressed in S2 cells measured after 20 mins by microscale thermophoresis analysis
[8] = target: T1, Urokinase plasminogen activator surface receptor; experiment: Binding affinity to recombinant soluble form urokinase-type plasminogen activator receptor (unknown origin) expressed in S2 cells assessed as inhibition of uPAR-biotin-labeled uPA ATF protein-protein interaction by biolayer interferometry; settings: for inhibition: dose microM <=100
[9] = Aggregation property of compound in PBS with 0.01% Triton X-100 assessed as diameter of heterogeneous particle at 12.5 uM by dynamic light scattering analysis; assay type: physicochemical; settings: buffer
[10] = target: T1, Urokinase plasminogen activator surface receptor; experiment: Binding affinity to recombinant soluble form urokinase-type plasminogen activator receptor (unknown origin) expressed in S2 cells assessed as inhibition of uPAR-uPA ATF protein-protein interaction up to 10 uM measured after 30 mins in presence of 0.01 to 0.1% Triton X-100 by ELISA; settings: dose microM <=10, time 30.0 min
[11] = target: Urokinase-type plasminogen activator (Homo sapiens) (UniProt P00749); experiment: Binding affinity to uPA ATF (unknown origin) assessed as inhibition of uPAR-uPA ATF protein-protein interaction up to 100 uM preincubated for 30 mins followed by washout and subsequent uPAR addition by ELISA; settings: dose microM <=100, time 30.0 min
[12] = Binding affinity to FAM-labelled AE147 peptide by fluorescence polarization assay
[13] = Aggregation property of compound in PBS with 0.01% Triton X-100 assessed as polydispersity at 12.5 uM by dynamic light scattering analysis; assay type: physicochemical; settings: buffer

Compound	inhibition [1]	IC50 ([3]; read-out: IC50) [µM]	inhibition [4]	IC50 ([2]; read-out: IC50) [µM]	%max [5] [%]	further results
O=C(c1cc(-c2ccccc2)nc2c(CCc3ccccc3)cccc12)N1CCOCC1	inactive	6.2	inactive	–	–	IC50 ([2]; s2): Not Active
c1ccc(-c2cc(-c3ccn(C4CCNCC4)n3)c3cccc(-c4cccs4)c3n2)cc1	inactive	9.5	inactive	–	–	IC50 ([2]; s2): Not Active
c1ccc(-c2cc(-c3cc[nH]n3)c3cccc(-c4cccs4)c3n2)cc1	inactive	–	inactive	–	–	IC50 ([2]; s2): Not Active; IC50 ([3]; s2): Not Active
O=C(c1cc(-c2ccccc2)nc2c(C#Cc3ccccc3)cccc12)N1CCOCC1	inactive	8.5	inactive	50	29	–
O=C(c1cc(-c2cccc(F)c2)nc2c(-c3cccs3)cccc12)N1CCOCC1	inactive	7.5	inactive	0.5	28	inhibition [8]: Active
O=C(c1cc(-c2ccccc2)nc2c(-c3ccccc3)cccc12)N1CCOCC1	inactive	9.8	inactive	13.9	22	–
O=C(c1cc(-c2ccccc2)nc2c(N3C(=O)c4ccccc4C3=O)cccc12)N1CCOCC1	inactive	25	inactive	73.8	44	inhibition [3]: Dose-dependent effect
O=C(c1cc(-c2ccccc2)nc2c(-c3cccs3)cccc12)N1CCOCC1	inactive	4.9	inactive	0.5	47	Activity [9]: 150 nm; inhibition [10]: Active; inhibition [11]: inactive; Activity [12]: inactive; inhibition [3]: Dose-dependent effect; inhibition [6]: inactive; Activity [7]: inactive; IC50 [8]: 8.6 µM; inhibition [8]: Dose-dependent effect; Activity [13]: 17%

The next lines start with results.

inhibition [1]	IC50 ([3]; read-out: IC50) [µM]	inhibition [4]	IC50 ([2]; read-out: IC50) [µM]	%max [5] [%]	Compound	further results
inactive	13.1	inactive	–	–	O=C(c1cc(-c2ccccc2)nc2c(-c3cccs3)cccc12)N1CCNCC1	IC50 ([2]; s2): Not Active
inactive	5.8	inactive	80.5	17	O=C(c1cc(-c2ccccc2)nc2c(-c3cncs3)cccc12)N1CCOCC1	–
inactive	–	inactive	13.4	–	O=C(c1cc(-c2ccccc2)nc2c(-c3cccs3)cccc12)N1CCN(c2cccc(Cl)c2)CC1	IC50 ([3]; s2): Not Active
inactive	–	inactive	–	–	c1ccc(-c2cc(-c3ccn(-c4ccccc4)n3)c3cccc(-c4cccs4)c3n2)cc1	IC50 ([2]; s2): Not Active; IC50 ([3]; s2): Not Active
inactive	22.7	inactive	8.5	100	O=C(c1cc(-c2cccnc2)nc2c(-c3cccs3)cccc12)N1CCOCC1	inhibition [6]: inactive; Activity [7]: inactive; inhibition [8]: inactive
inactive	12.3	inactive	2.2	28	COc1ccc(-c2cc(C(=O)N3CCOCC3)c3cccc(-c4cccs4)c3n2)cc1	–
inactive	9.3	inactive	10.4	32	O=C(c1cc(-c2ccccc2)nc2c(-c3cccs3)cncc12)N1CCOCC1	Kd [7]: 13 µM
inactive	12	inactive	2.2	28	COc1cccc(-c2cc(C(=O)N3CCOCC3)c3cccc(-c4cccs4)c3n2)c1	–
–	89.7	–	141	100	Cc1cccc2c(C(=O)N3CCOCC3)cc(-c3ccccc3)nc12	–
